Measured values taken from BindingDB's records for patent WO2022021841 (Sichuan University, 2022).

Columns and labels:
[1] = target: T1, Replicase polyprotein 1ab (Severe acute respiratory syndrome coronavirus 2, UniProt P0DTD1); test: SARS-CoV-2 in Vero E6
[2] = target: T1, Replicase polyprotein 1ab; test: SARS-CoV-2 Coronavirus 3C Protease FRET Assay
Method: IC50 values were calculated by fitting a curve of Vmax to experimental values with the controls (DMSO) as the top and bottom limits of the curve. […] GraphPad Prism is the analysis tool for all measurements.

| SMILES | EC50 [1] | Ki [2] |
| --- | --- | --- |
| COc1ccc(OCC(=O)N2C[C@@H]3CCC[C@@H]3C2C(=O)N[C@H](C=O)C[C@@H]2CCNC2=O)cc1 (stereo not given in full) [WO2022021841, 17] | 24700 nM | 20 nM |
| O=C[C@H](C[C@@H]1CCNC1=O)NC(=O)C1[C@H]2CCC[C@H]2CN1C(=O)CCc1cc(F)cc(F)c1 (stereo not given in full) [WO2022021841, 19] | 5630 nM | 11 nM |
| COc1ccc(OCC(=O)N2C[C@H]3[C@@H](C2C(=O)N[C@H](C=O)C[C@@H]2CCNC2=O)C3(C)C)cc1OC (stereo not given in full) [WO2022021841, 20] | 1730 nM | 12 nM |
| Cc1cc(Cl)ccc1OCC(=O)N1C[C@@H]2CCC[C@H]2C1C(=O)N[C@H](C=O)C[C@@H]1CCNC1=O (stereo not given in full) [WO2022021841, 24] | 1500 nM | 22 nM |
| O=C[C@H](C[C@@H]1CCNC1=O)NC(=O)C1[C@@H]2CCC[C@H]2CN1C(=O)COc1ccc(Cl)cc1 (stereo not given in full) [WO2022021841, 26] | 670 nM | 9 nM |
| CC1(C)[C@@H]2C(C(=O)N[C@H](C=O)C[C@@H]3CCNC3=O)N(C(=O)COc3ccc4ccccc4c3)C[C@@H]21 (stereo not given in full) [WO2022021841, 27] | 1270 nM | 54 nM |
| COc1ccc(OCC(=O)N2C[C@H]3[C@@H](C2C(=O)N[C@H](C=O)C[C@@H]2CCNC2=O)C3(C)C)cc1F (stereo not given in full) [WO2022021841, 28] | 4680 nM | 47 nM |
| CC1(C)[C@@H]2C(C(=O)N[C@H](C=O)C[C@@H]3CCNC3=O)N(C(=O)COc3ccc(Cl)c(Br)c3)C[C@@H]21 (stereo not given in full) [WO2022021841, 30] | 1150 nM | 14 nM |
| CC1(C)[C@@H]2C(C(=O)N[C@H](C=O)C[C@@H]3CCNC3=O)N(C(=O)COc3ccc(Br)cc3Cl)C[C@@H]21 (stereo not given in full) [WO2022021841, 31] | 1180 nM | 15 nM |
| CC1(C)[C@@H]2C(C(=O)N[C@H](C=O)C[C@@H]3CCNC3=O)N(C(=O)COc3ccc(F)c(F)c3)C[C@@H]21 (stereo not given in full) [WO2022021841, 33] | 5570 nM | 13 nM |
| CC1(C)[C@@H]2C(C(=O)N[C@H](C=O)C[C@@H]3CCNC3=O)N(C(=O)COc3cc(F)cc(F)c3)C[C@@H]21 (stereo not given in full) [WO2022021841, 34] | 1540 nM | 20 nM |
| CC1(C)[C@@H]2C(C(=O)N[C@H](C=O)C[C@@H]3CCNC3=O)N(C(=O)CCc3cccc(F)c3)C[C@@H]21 (stereo not given in full) [WO2022021841, 36] | 2230 nM | 16 nM |
| O=C[C@H](C[C@@H]1CCNC1=O)NC(=O)C1[C@@H]2CCC[C@H]2CN1C(=O)CCc1cccc(F)c1 (stereo not given in full) [WO2022021841, 37] | 2970 nM | 7 nM |
| CC1CNC(=O)[C@@H]1C[C@@H](C=O)NC(=O)C1[C@@H]2CCC[C@H]2CN1C(=O)COc1ccc(Cl)cc1Cl (stereo not given in full) [WO2022021841, 40] |  | 17 nM |
| CC1CNC(=O)[C@@H]1C[C@@H](C=O)NC(=O)C1[C@@H]2CCC[C@H]2CN1C(=O)C(C)(C)Oc1ccc(Cl)cc1Cl (stereo not given in full) [WO2022021841, 41] |  | 56 nM |
| O=C(N[C@@H](C[C@@H]1CCNC1=O)C(=O)CCl)C1[C@@H]2CCC[C@H]2CN1C(=O)COc1ccc(Cl)cc1Cl (stereo not given in full) [WO2022021841, 42] |  | 19 nM |
| CC1(C)[C@@H]2C(C(=O)N[C@H](C=O)C[C@@H]3CCNC3=O)N(C(=O)COc3ccc(Cl)cc3)C[C@@H]21 (stereo not given in full) [WO2022021841, 43] | 530 nM | 9 nM |
| CC1(C)[C@@H]2C(C(=O)N[C@H](C=O)C[C@@H]3CCNC3=O)N(C(=O)COc3ccc(Cl)cc3Cl)C[C@@H]21 (stereo not given in full) [WO2022021841, 44] | 660 nM | 10 nM |
| O=C[C@H](C[C@@H]1CCNC1=O)NC(=O)C1[C@@H]2CCC[C@H]2CN1C(=O)COc1ccc(Cl)c(Cl)c1 (stereo not given in full) [WO2022021841, 45] | 830 nM | 19 nM |
| O=C[C@H](C[C@@H]1CCNC1=O)NC(=O)C1[C@@H]2CCC[C@H]2CN1C(=O)COc1cccc(-c2ccccc2)c1 (stereo not given in full) [WO2022021841, 46] |  | 10 nM |
| CC1CNC(=O)[C@@H]1C[C@@H](C=O)NC(=O)C1[C@@H]2CCC[C@H]2CN1C(=O)COc1cccc(-c2ccccc2)c1 (stereo not given in full) [WO2022021841, 47] |  | 12 nM |
| CC1CNC(=O)[C@@H]1C[C@@H](C=O)NC(=O)C1[C@@H]2[C@H](CN1C(=O)COc1ccc(Cl)c(Cl)c1)C2(C)C (stereo not given in full) [WO2022021841, 48] |  | 11 nM |
| CC1CNC(=O)[C@@H]1C[C@@H](C=O)NC(=O)C1[C@@H]2[C@H](CN1C(=O)COc1cccc(-c3ccc(Cl)cc3)c1)C2(C)C (stereo not given in full) [WO2022021841, 49] |  | 22 nM |
| CC(C)(C)NC(=O)C(=O)[C@H](C[C@@H]1CCNC1=O)NC(=O)C1[C@@H]2CCC[C@H]2CN1C(=O)COc1ccc(Cl)cc1Cl (stereo not given in full) [WO2022021841, 50] |  | 1190 nM |
| O=C(NCc1ccccc1)C(=O)[C@H](C[C@@H]1CCNC1=O)NC(=O)C1[C@@H]2CCC[C@H]2CN1C(=O)COc1ccc(Cl)cc1Cl (stereo not given in full) [WO2022021841, 51] |  | 50400 nM |
| O=C(NC1CC1)C(=O)[C@H](C[C@@H]1CCNC1=O)NC(=O)C1[C@@H]2CCC[C@H]2CN1C(=O)COc1ccc(Cl)cc1Cl (stereo not given in full) [WO2022021841, 52] |  | 875 nM |
| O=C(NCc1ccccn1)C(=O)[C@H](C[C@@H]1CCNC1=O)NC(=O)C1[C@@H]2CCC[C@H]2CN1C(=O)COc1ccc(Cl)cc1Cl (stereo not given in full) [WO2022021841, 53] |  | 63100 nM |

| SMILES | EC50 [1] | Ki [2] |
| --- | --- | --- |
| CC1(C)CNC(=O)[C@@H]1C[C@@H](C=O)NC(=O)C1[C@@H]2CCC[C@H]2CN1C(=O)COc1ccc(Cl)cc1Cl (stereo not given in full) [WO2022021841, 54] |  | 24 nM |
| CC1(C)CNC(=O)[C@@H]1C[C@@H](C=O)NC(=O)C1[C@H]2[C@H](CN1C(=O)COc1ccc(Cl)cc1Cl)C2(C)C (stereo not given in full) [WO2022021841, 55] |  | 31 nM |
| CC1(C)[C@H]2CN(C(=O)COc3ccc(Cl)cc3Cl)C(C(=O)N[C@H](C=O)C[C@H]3C(=O)NCC3(F)F)[C@@H]21 (stereo not given in full) [WO2022021841, 56] |  | 33 nM |
| COc1ccc(CNC(=O)N2C[C@@H]3CCC[C@H]3C2C(=O)N[C@H](C=O)C[C@@H]2CCNC2=O)cc1 (stereo not given in full) [WO2022021841, 57] |  | 26 nM |
| O=C[C@H](C[C@@H]1CCNC1=O)NC(=O)C1[C@@H]2CCC[C@H]2CN1C(=S)NCc1ccc(F)cc1 (stereo not given in full) [WO2022021841, 58] |  | 30 nM |
| O=C[C@H](C[C@@H]1CCNC1=O)NC(=O)C1[C@@H]2CCC[C@H]2CN1C(=S)NCc1cccc(F)c1 (stereo not given in full) [WO2022021841, 59] |  | 37 nM |
| CC(C)(C)C(NC(=O)Cc1ccc(Cl)cc1Cl)C(=O)N1C[C@@H]2CCC[C@H]2C1C(=O)N[C@H](C=O)C[C@@H]1CCNC1=O (stereo not given in full) [WO2022021841, 60] |  | 33 nM |
| CC(C)(C)C(NCc1ccc(Cl)cc1Cl)C(=O)N1C[C@@H]2CCC[C@H]2C1C(=O)N[C@H](C=O)C[C@@H]1CCNC1=O (stereo not given in full) [WO2022021841, 61] |  | 39 nM |
| CC(C)(OCc1ccc(F)cc1F)C(=O)N1C[C@@H]2CCC[C@H]2C1C(=O)N[C@H](C=O)C[C@@H]1CCNC1=O (stereo not given in full) [WO2022021841, 62] |  | 40 nM |
| CC(C)(CCc1ccc(Cl)c(F)c1)C(=O)N1C[C@@H]2CCC[C@H]2C1C(=O)N[C@H](C=O)C[C@@H]1CCNC1=O (stereo not given in full) [WO2022021841, 63] |  | 26 nM |
| O=C[C@H](C[C@@H]1CCNC1=O)NC(=O)C1[C@@H]2CCC[C@H]2CN1C(=O)CCc1cc(Cl)cc(Cl)c1 (stereo not given in full) [WO2022021841, 64] |  | 33 nM |
| O=C[C@H](C[C@@H]1CCNC1=O)NC(=O)C1[C@@H]2CCC[C@H]2CN1C(=O)CCc1ccc(Cl)cc1 (stereo not given in full) [WO2022021841, 65] |  | 44 nM |
| O=C[C@H](C[C@@H]1CCNC1=O)NC(=O)C1[C@@H]2CCC[C@H]2CN1C(=O)CCc1cccc(Cl)c1 (stereo not given in full) [WO2022021841, 66] |  | 36 nM |
| O=C[C@H](C[C@@H]1CCNC1=O)NC(=O)C1[C@@H]2CCC[C@H]2CN1C(=O)CCc1ccc(Cl)cc1Cl (stereo not given in full) [WO2022021841, 67] |  | 40 nM |
| O=C[C@H](C[C@@H]1CCNC1=O)NC(=O)C1[C@@H]2CCC[C@H]2CN1C(=O)CCc1ccc(Cl)c(Cl)c1 (stereo not given in full) [WO2022021841, 68] |  | 35 nM |
| CC(Oc1ccc(Cl)cc1Cl)C(=O)N1C[C@@H]2CCC[C@H]2C1C(=O)N[C@H](C=O)C[C@@H]1CCNC1=O (stereo not given in full) [WO2022021841, 69] |  | 107 nM |
| O=C[C@H](C[C@@H]1CCNC1=O)NC(=O)C1[C@@H]2CCC[C@H]2CN1C(=O)/C=C/c1ccc(Cl)cc1Cl (stereo not given in full) [WO2022021841, 70] |  | 81 nM |
| O=C[C@H](C[C@@H]1CCNC1=O)NC(=O)C1[C@@H]2CCC[C@H]2CN1C(=O)C(F)(F)Oc1ccc(Cl)cc1Cl (stereo not given in full) [WO2022021841, 71] |  | 40 nM |
| O=C[C@H](C[C@@H]1CCNC1=O)NC(=O)C1[C@@H]2CCC[C@H]2CN1C(=O)C(F)Oc1ccc(Cl)cc1Cl (stereo not given in full) [WO2022021841, 72] |  | 31 nM |
| O=C[C@H](C[C@@H]1CCNC1=O)NC(=O)C1[C@@H]2CCC[C@H]2CN1C(=O)CCc1cccc(O)c1 (stereo not given in full) [WO2022021841, 73] |  | 31 nM |
| O=C[C@H](C[C@@H]1CCNC1=O)NC(=O)C1[C@@H]2CCC[C@H]2CN1C(=O)CCc1ccc(O)cc1 (stereo not given in full) [WO2022021841, 74] |  | 51 nM |
| O=C[C@H](C[C@@H]1CCNC1=O)NC(=O)C1[C@@H]2CCC[C@H]2CN1C(=O)CCc1ccc(O)c(O)c1 (stereo not given in full) [WO2022021841, 75] |  | 41 nM |
| COc1ccc(CCC(=O)N2C[C@@H]3CCC[C@H]3C2C(=O)N[C@H](C=O)C[C@@H]2CCNC2=O)cc1 (stereo not given in full) [WO2022021841, 76] |  | 51 nM |
| COc1ccc(CCC(=O)N2C[C@@H]3CCC[C@H]3C2C(=O)N[C@H](C=O)C[C@@H]2CCNC2=O)c(Cl)c1 (stereo not given in full) [WO2022021841, 77] |  | 56 nM |
| COc1cccc(CCC(=O)N2C[C@@H]3CCC[C@H]3C2C(=O)N[C@H](C=O)C[C@@H]2CCNC2=O)c1 (stereo not given in full) [WO2022021841, 78] |  | 68 nM |
| CC1CNC(=O)[C@@H]1C[C@H](NC(=O)C1[C@H]2[C@H](CN1C(=O)COc1ccc(OC(F)(F)F)cc1)C2(C)C)C(=O)CF (stereo not given in full) [WO2022021841, 79] |  | 65 nM |
| CC1CNC(=O)[C@@H]1C[C@H](NC(=O)C1[C@@H]2CCC[C@H]2CN1C(=O)COc1ccc(OC(F)(F)F)cc1)C(=O)CF (stereo not given in full) [WO2022021841, 80] |  | 23 nM |
